Measured values from patent US20260258084A1, “New Peptides as Selective IL-23 Receptor Antagonists” (Sanofi, priority 2022, published 2026).
Values after ≈ are worked out from the molar mass of the structure shown. Where two headings read alike, the source gives them in different places. Starred links: 1 amine or outer side, 2 acyl side, 3 side chain; linkers in the order of their positions; H or OH if unused. Positions of bridges follow the written chain, without caps; N, C: chain ends. Non-standard residues stand in square brackets, D forms with d. Residues, ends and D or L forms follow the SMILES beside them. Groups on a side chain read outwards from the residue. *: point of attachment. X6 = O=C(CCC(=O)[*:3])N[C@@H](CS[*:2])C(=O)[*:1]; Trp(7-Me) = Cc1cccc2c(C[C@H](N)C(=O)O)c[nH]c12; X1 = O=C(CCCCN[*:3])N[C@@H](CS[*:2])C(=O)[*:1]; C18 diacid = O=C(O)CCCCCCCCCCCCCCCCC(=O)*; αMeLys(Me2) = CN(C)CCCC[C@](C)(N)C(=O)O; γGlu = O=C(O)[C@H](CCC(=O)[*:2])N[*:1]; 2Nal = N[C@@H](Cc1ccc2ccccc2c1)C(=O)O; Palmitoyl = CCCCCCCCCCCCCCCC(=O)*; 3Pal = N[C@@H](Cc1cccnc1)C(=O)O; αMeL = CC(C)C[C@](C)(N)C(=O)O; Suc = O=C(CCC(=O)[*:2])[*:1]; αMeK = C[C@](N)(CCCCN)C(=O)O; AEEA = NCCOCCOCC(=O)O; Me2NCH2CH2 = CN(C)CC*; Aib = CC(C)(N)C(=O)O; Ava = NCCCCC(=O)O; Sar = CNCC(=O)O

Key:
Pancreatin = experiment: Protease stability in simulated intestinal fluid (Pancreatin-SIF, FaSSIF); type: in vitro ADME; conditions: 1 μM peptide, 37° C.; for remaining at 1 h, 1 µM: 60 min, read-out: FaSSIF 60 (min), remaining percent of peptide; for remaining at 2 h, 1 µM: 120 min, read-out: FaSSIF 120 (min), remaining percent of peptide; for remaining at 4 h, 1 µM: 240 min, read-out: FaSSIF 240 (min), remaining percent of peptide
Description: (§1) Studies were carried out in simulated intestinal fluid (SIF) and simulated gastric fluid (SGF) to evaluate gastric stability of the peptide compounds disclosed herein.
Similarly, the term “Pancreatin-SIF” refers to a solution of simulated intestinal fluid containing pancreatin whereas “SIF-media” refers to a solution of simulated intestinal fluid without pancreatin.
Pancreatin-SIF was prepared by dissolving 1 mg Pancreatin (MP Biomedicals) in 10 mL SIF media concentrate (ProSense).
(§2) Peptides were first dissolved at 1 mM stock concentration in 0.01 HCl (+/−10% of DMSO) and were than diluted further with water to a stock concentration of 20 μM. Final peptide concentration in the incubation was 1 μM.
(§3) To 76 μL of the Pepsin-SGF buffer, 4 μL of the 20 µM peptide stock solution was added and incubated at 37° C. At each timepoint (0, 60, 120 and 240 minutes) the reaction was quenched with addition of 80 μL Ethanol (0.1% HCOOH). The samples were centrifuged for 20 minutes and an aliquot of the supernatant 100 μL were transferred to a LoBind-MTP plate and analyzed by LCMS/MS. The peak area response was calculated at each time point for each test compound. As internal reference, the peak area response of the same test compound at TO was calculated. The percent remaining at each timepoint was calculated based on the peak area response ratio of the test compound at TO. Time 0 was set to 100%, and all later timepoints were calculated relative to time 0.

[1] = molecular target: T1, human interleukin-23 receptor (recombinant human IL-23R-Fc chimera) (Homo sapiens, UniProt Q5VWK5); experiment: Human ELISA IL23/IL23R (assay for specific human IL23R antagonists); type: binding; conditions: Table 10; read-out: Human ELISA IL23/IL23R IC50
T1 construct: Fc (IgG Fc fusion)
Summary of the method: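 Competition format: peptide dilutions compete for IL23R-Fc chimera (0.1 μg/ml final, 60 min, room temperature) binding to immobilized human IL23 coated at […] overnight at 4 °C. Read-out is fluorogenic HRP signal from goat anti-hu-IgG1 detecting captured receptor.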

Pepsin = system: T2, Pepsin; experiment: Protease stability in simulated gastric fluid (Pepsin-SGF, FaSSGF); type: in vitro ADME; conditions: simulated gastric fluid with pepsin (Pepsin-SGF), 60 min, 1 μM peptide, 37° C., read-out: FaSSGF 60 (min), remaining percent of peptide
T2 construct: purchased Merck Millipore
Description: as §1
For clarification the term “Pepsin-SGF” refers to a solution of simulated gastric fluid containing pepsin whereas “SGF media” refers to a solution of simulated gastric fluid without pepsin. Pepsin-SGF was prepared by dissolving 320 mg Pepsin (Merck Millipore) in 100 mL SGF media concentrate (ProSense).
as §2
as §3, with “μM” for “µM”

[2] = system: IL-23 induced STAT3 signaling in HEK-Blue™ IL-23 cells; experiment: IL-23 induced STAT3 signaling in HEK-Blue IL-23 cells (SEAP reporter); type: cell-based; conditions: human IL23 0.25 ng/ml, read-out: pSTAT3
Summary of the method: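 Secreted SEAP, read at OD 620-655 nm after 45 min QUANTI-Blue development, reports STAT3 activation. Beforehand, cells were exposed to peptide dilutions for 60 min at 37 °C and then to 0.25 ng/ml final human IL-23 overnight, at 10,000 cells/well.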

[3] = Chemical stability assessment of peptides (relative purity loss); type: physicochemical; conditions: 24 hours at 37° C.
Description: Purity of a peptide batch was determined through UPLC/MS (Methods B-G) prior to chemical stability measurement. The target concentration was 1 mg/ml pure compound. Solutions from solid samples were prepared in the following buffer systems with a concentration of 1 mg/ml compound based on the previously determined % purity: • Solubility buffer system A) 50 mM HCl pH 1.2+Acetonitrile (1:1) • Solubility buffer system B) 50 mM phosphate buffer pH 6.5+Acetonitrile (1:1) • Solubility buffer system C) 50 mM phosphate buffer pH 7.4+Acetonitrile (1:1)
Prepared solutions were stored for 24 hours at 2° C. and 37° C. After this time course, the samples were centrifuged for 15 min at 2500 RCF to create a 1:5 dilution of the supernatant. Then 2 μl of the dilution were analysed with UHPLC-UV.
The chemical stability was rated through the relative loss of purity calculated by the equation:
[(purity after 0 hours at 37° C.)−(purity after 24 hours at 37° C.)]/(purity after 0 hours at 37° C.)]*100%
The purity is calculated as [(peak area peptide)/(total peak area)]*100%.

[4] = Solubility testing of peptides at different pH; type: physicochemical; conditions: target concentration 1 mg/ml, 2 hours agitation
Description: Prior to the solubility measurement of a synthesized peptide batch, its purity was determined through UPLC/MS (methods B-G).
For solubility testing the target concentration was 1 mg pure compound/ml. Therefore, solutions from solid samples were prepared in a buffer system at a concentration of 1 mg/mL compound. The solid samples were obtained by drying down aliquots of a dimethyl sulfoxide stock solution using a Thermo Speedvac vacuum centrifuge. The dry down time was 3 hours. • Solubility buffer system A) 50 mM HCl pH 1.2 • Solubility buffer system B) 50 mM phosphate buffer pH 6.5 • Solubility buffer system C) 50 mM phosphate buffer pH 7.4 • Solubility buffer system D) 50 mM phosphate buffer pH 9.0
UPLC-UV (Method A) was performed after 2 hours of gentle agitation from the filtered (0.45 μm filter plates) solutions, which was obtained by 10 mins of centrifugation forced filtration at 1500 RCF (relative centrifugal acceleration).
The solubility was determined by the comparison of the UV peak area of 2 μL-injections of a buffered sample diluted 1:5 with a standard curve of a dimethyl sulfoxide reference sample of the diluted in dimethyl sulfoxide with known concentration. The different extinction coefficients were taken into account for the calculation.

| remaining at 1 h, 1 µM (Pancreatin) | remaining at 2 h, 1 µM (Pancreatin) | remaining at 4 h, 1 µM (Pancreatin) | IC50 [1] | remaining at 1 h, 1 µM (Pepsin) | Chemical stability (relative purity loss) Buffer pH 1.2 ([3]; 50 mM HCl pH 1.2 + acetonitrile (1:1)) | Chemical stability (relative purity loss) Buffer pH 6.5 ([3]; 50 mM phosphate buffer pH 6.5 + acetonitrile (1:1)) | Chemical stability (relative purity loss) Buffer pH 7.4 ([3]; 50 mM phosphate buffer pH 7.4 + acetonitrile (1:1)) | solubility at 2 h ([4]; 50 mM HCl buffer, 50 mM HCl pH 1.2, read-out: Solubility Buffer pH 1.2) | solubility at 2 h ([4]; 50 mM phosphate buffer pH 6.5, read-out: Solubility Buffer pH 6.5) | solubility at 2 h ([4]; 50 mM phosphate buffer pH 7.4, read-out: Solubility Buffer pH 7.4) | solubility at 2 h ([4]; 50 mM phosphate buffer pH 9.0, read-out: Solubility Buffer pH 9.0) | SMILES | IC50 [2] |
| --- | --- | --- | --- | --- | --- | --- | --- | --- | --- | --- | --- | --- | --- |
| 76% | 76% | 74% | 0.65 nM | 90% | – | – | – | – | – | – | – | CC(=O)NCCCC[C@@H]1NC(=O)[C@H](Cc2c[nH]c3c(C)cccc23)NC(=O)[C@@H](NC(C)=O)CCCCNC(=O)[C@@H]2CSSC[C@H](NC1=O)C(=O)N[C@@H](Cc1ccc(OCCN(C)C)cc1)C(=O)N[C@@H](Cc1ccc3ccccc3c1)C(=O)N[C@@](C)(CC(C)C)C(=O)N[C@H](C(=O)N[C@@H](CC(N)=O)C(=O)N[C@@H](Cc1cccnc1)C(=O)N(C)CC(N)=O)CCCCNC(=O)CCC(=O)N2 [compound 106] (Ac-K[Trp(7-Me)]K(Ac)CY(Me2NCH2CH2)[2Nal][αMeL]KN[3Pal][Sar]-NH2; linker 1-4-8 via X6) | 0.13 nM |
| 95% | 80% | 52% | 0.23 nM | 61% | – | – | – | – | – | – | – | CC[C@H](C)[C@H](NC(=O)[C@H](CC(N)=O)NC(=O)[C@H](CC(N)=O)NC(=O)[C@@H]1CCC(=O)NCCCCC(=O)N[C@H]2CSSC[C@H](NC(=O)[C@H](CCC(N)=O)NC(=O)[C@H](Cc3c[nH]c4ccccc34)NC(=O)[C@H]([C@@H](C)O)NC(=O)[C@H](CC(N)=O)NC2=O)C(=O)N[C@@H](Cc2ccc(OCCN(C)C)cc2)C(=O)N[C@@H](Cc2ccc3ccccc3c2)C(=O)NC(C)(C)C(=O)N1)C(N)=O [compound 57] ([Ava]CNTWQCY(Me2NCH2CH2)[2Nal][Aib]ENNI-NH2; disulfide 2-7; lactam N-11) | 5.5 nM |
| 98% | 98% | 98% | 0.7 nM | 98% | – | – | – | – | – | – | – | Cc1cccc2c(C[C@@H]3NC(=O)[C@H]([C@@H](C)O)NC(=O)[C@H](CC(N)=O)NC(=O)[C@@H]4CSSC[C@H](NC(=O)[C@H](CC(C)C)NC3=O)C(=O)N[C@@H](Cc3ccc(OCCN(C)C)cc3)C(=O)N[C@@H](Cc3ccc5ccccc5c3)C(=O)N[C@@](C)(CCCCN(C)C)C(=O)N[C@H](C(=O)N[C@@H](C)C(=O)N[C@@H](Cc3cccnc3)C(=O)N(C)CC(N)=O)CCCCNC(=O)CCC(=O)N4)c[nH]c12 [compound 155] (CNT[Trp(7-Me)]LCY(Me2NCH2CH2)[2Nal][αMeLys(Me2)]KA[3Pal][Sar]-NH2; disulfide 1-6; linker N-10 via Suc) | 0.1 nM |
| 99% | 98% | 98% | 2.27 nM | 102% | – | – | – | – | – | – | – | CCCCCCCCCCCCCCCC(=O)NCCCC[C@]1(C)NC(=O)[C@H](Cc2ccc3ccccc3c2)NC(=O)[C@H](Cc2ccc(OCCN(C)C)cc2)NC(=O)[C@@H]2CSSC[C@H](NC(=O)CCCCNC(=O)CC[C@@H](C(=O)N[C@@H](CC(N)=O)C(=O)N[C@@H](Cc3cccnc3)C(=O)N(C)CC(N)=O)NC1=O)C(=O)NCCCC[C@H](NC(C)=O)C(=O)N[C@@H](Cc1c[nH]c3c(C)cccc13)C(=O)N[C@@H](CCCCNC(C)=O)C(=O)N2 [compound 67] (Ac-K[Trp(7-Me)]K(Ac)CY(Me2NCH2CH2)[2Nal][αMeK](Palmitoyl)EN[3Pal][Sar]-NH2; linker 1-4-8 via X1) | 22.6 nM |
| 84% | 68% | 47% | – | 0% | 28.9% | 1.3% | 6.0% | 200 µg/mL (≈ 117 µM) | 160 µg/mL (≈ 93.8 µM) | 160 µg/mL (≈ 93.8 µM) | 150 µg/mL (≈ 87.9 µM) | COc1ccc(C[C@@H]2NC(=O)[C@@H]3CSSC[C@H](NC(=O)[C@@H](NC(C)=O)CCCCNC(=O)C[C@@H](C(=O)N[C@@H](CC(N)=O)C(=O)N[C@@H](CC(N)=O)C(N)=O)NC(=O)C(C)(C)NC(=O)[C@H](Cc4ccc5ccccc5c4)NC2=O)C(=O)N[C@@H](CC(N)=O)C(=O)N[C@@H]([C@@H](C)O)C(=O)N[C@@H](Cc2c[nH]c4ccccc24)C(=O)N[C@@H](CCC(N)=O)C(=O)N3)cc1 [compound 7] (Ac-KCNTWQCY(Me)[2Nal][Aib]DNN-NH2; lactam 1-11; disulfide 2-7) | 25 nM |
| – | – | – | 0.31 nM | 76% | – | – | – | – | – | – | – | Cc1cccc2c(C[C@@H]3NC(=O)[C@H]([C@@H](C)O)NC(=O)[C@H](CC(N)=O)NC(=O)[C@@H]4CSSC[C@H](NC(=O)[C@H](CCC(N)=O)NC3=O)C(=O)N[C@@H](Cc3ccc(OCCN(C)C)cc3)C(=O)N[C@@H](Cc3ccc5ccccc5c3)C(=O)NC(C)(C)C(=O)N[C@H](C(=O)N[C@@H](CC(N)=O)C(=O)N[C@@H](Cc3cccnc3)C(=O)N[C@@H](CCCCNC(=O)COCCOCCNC(=O)COCCOCCNC(=O)CC[C@H](NC(=O)CCCCCCCCCCCCCCCCC(=O)O)C(=O)O)C(N)=O)CCCCNC(=O)CCC(=O)N4)c[nH]c12 [compound 71] (CNT[Trp(7-Me)]QCY(Me2NCH2CH2)[2Nal][Aib]KN[3Pal]K([AEEA-AEEA-γGlu-C18 diacid])-NH2; disulfide 1-6; linker N-10 via Suc) | 2.35 nM |
